Test results reported in PMC7915858, “Complementary Effects of Carbamylated and Citrullinated LL37 in Autoimmunity and Inflammation in Systemic Lupus Erythematosus” (International Journal of Molecular Sciences, 2021).

Experiments:
[1] = tested on: SLE-affected kidney biopsies; experiment: Confocal microscopy of SLE renal biopsies; design: species or system human; conditions: antibody RRB640, lupus nephritis class IV
Protocol: Paraffin-included SLE renal biopsies were obtained from Policlinico Umberto I, Rome, IT. Biopsies were de-paraffinized in xylene (5 min, two times), followed by passages in: absolute ethanol (3 min), 95% ethanol in water (3 min), 80% ethanol in water (3 min), 70% ethanol in water (3 min) and antigen retrieval (5 min at 95 °C in 10 mM sodium citrate, pH 6.0). […] Slides were washed three times for 3 min under agitation with washing buffer and incubated with donkey anti-mouse or anti-rabbit secondary antibody, conjugated with AlexaFluor 647, Alexa Fluor 568 or 594 or AlexaFluor 488 (Abcam, Cambridge, UK) depending on the combinations of markers analyzed (in humidified chamber). Slides were washed again in washing buffer and mounted in Prolong Gold anti-fade media containing a DNA dye (DAPI) (Molecular Probes), before analysis with a confocal microscope, objectives 20× or 40× and 60× in oil immersion. Images were taken by a FV1000 confocal microscope (Olympus, Tokyo, Japan), using a Olympus planapo objective 40× or 60× oil A.N. 1,42. Excitation light was obtained by a Laser Dapi 408 nm for DAPI, an Argon Ion Laser (488 nm) for FITC (Alexa 488), a Diode Laser HeNe (561 nm) for Alexa 568 and a Red Diode Laser (638 nm) for Alexa 647. DAPI emission was recorded from 415 to 485 nm, FITC emission was recorded from 495 to 550 nm, Alexa 568 from 583 to 628 nm and Alexa 647, from 634 to 750 nm.

SLE CD4 T-cells (CXCR5) = experiment: CXCR5 (TFH marker) expression on stimulated CD4 T-cells, flow cytometry; assay type: cell-based, human
Source text: Antibodies to CD4, CD8, CD3 conjugated with various fluorochromes (FITC, phycoerythrin (PE), peridinin-chlorophyll-protein (PerCp), allophycocyanin (APC), PE-Cy7) were from BD Biosciences or eBiosciences (San Diego, CA). For further LL37-specific T-cell characterization and B-cell characterization we used: APC-Cy7-CXCR5 (FAB190), APC or PE-CD38, CD19, CD20, CD27, antibodies, purchased from BD Biosciences, eBiosciences, Novus Biologicals (Littleton, CO), R&D (Minneapolis, MN). Appropriate isotype-matched controls were purchased from the same companies. PerCp-7-AAD was from BD Pharmingen, DAPI from Invitrogen (Thermo Fisher, Carlsbad, CA, USA).
PBMCs were purified from EDTA-treated blood, on Ficoll-Hypaque (Pharmacia Fine Chemicals, Uppsala, Sweden) and were incubated (10^5 cells/well) in 96-well-flat-bottom-microplates (BD) in T-cell-medium (RPMI 1640, 10% heat-inactivated human serum, HS, Gibco), 2 mM L-glutamine, 10 U/mL penicillin and 100 μg/mL streptomycin), with/without peptides. We performed assays on fresh cells, within 1-to-3 h from collection or on PBMCs frozen in 90% FCS−10% DMSO, whose viability we assessed by Trypan blue exclusion, with an inverted microscope. Recovery of live cells was between 65 and 85% of the frozen number. At day 3 and 5, BrdU was added (1 μg/mL). BrdU-incorporation was detected by APC-labeled anti-BrdU antibody (BD Pharmingen), after surface staining for CD4, CD3, CD8 and analyzed by flow cytometry (Gallios, BeckmanCoulter, Brea, CA, USA). Internal control for T-cell viability and proliferation was PHA treatment (2 μg/mL). SI for proliferation was calculated by dividing percent of BrdU-staining in the presence of each peptide antigen (LL37, carb-LL37, cit-LL37, LL37 reverse, REV; cit-LL37 reverse, cit-REV; carb-LL37 reverse, carb-REV) by the percent obtained in the untreated cells. SI for proliferation was considered positive when the values of percent of BrdU positive cells was three times higher than the values obtained with the control peptides (SI > 3). Assays were repeated twice with each patient. In rare cases in which background proliferation (culture with REV, cit-REV, carb-REV), exceeded antigen-specific proliferation (that is response to LL37, carb-LL37, cit-LL37), the assay was repeated three times. Concomitant phenotype analysis of LL37-responder T-cells included staining for CD3, CD4, CD8, CXCR5 (CXCR5 was assessed on BrdU/CD3/CD4-positive cells).

[2] = tested on: native LL37-P1-specific T-cells (HLA-DRB1*1501 tetramer); conditions: SLE PBMC culture, tetramers of HLA-DR1, HLA-DR15 or HLA-DRB5; cited from earlier work
Source text: We have performed here similar experiments in SLE patients expressing the HLA-DR15 (HLA-DRB1*1501) and/or the DR16 alleles. Since both HLA-DR15- and HLA-DR16-positive individuals co-express DRB5 [[2 ...

Substance | Presence in SLE-affected kidney biopsies and co-localization with IgG [1] | Correlation of CXCR5 fold-increase with anti-native LL37 antibody response (SLE CD4 T-cells (CXCR5); Spearman, Figure 4e) | Correlation of T-cell proliferation with CXCR5 up-regulation (SLE CD4 T-cells (CXCR5); Spearman, Figure 3d) | CXCR5 up-regulation on antigen-specific T-cells (SLE CD4 T-cells (CXCR5); fold-increase with respect to T-cells proliferating to control carb-REV) | CXCR5-positive cells among total CD3+CD4+ cells (SLE CD4 T-cells (CXCR5); representative plot, Figure S5b left panels) | CXCR5-positive cells among CD3+CD4+BrdU+ cells (SLE CD4 T-cells (CXCR5); representative plot, Figure S5b middle panels) | CXCR5-positive cells among CD3+CD4+BrdU- cells (SLE CD4 T-cells (CXCR5); representative plot, Figure S5b right panels) | Expansion of T-cells specific for both cit-LL37 and native LL37 epitopes [2]
L*LGDFFRK*SK*EK*IGKEFK*RIVQRIK*DFLRNLVPRTES [carb-LL37] | present in SLE-affected kidney biopsies and partially co-localizes with immunoglobulin (Ig)-G | significantly correlated | positive and significance correlation | up-regulation of the TFH cell marker CXCR5 | 8.95% | 39.4% | 3.08% | 
LLGDFFR(cit)KSKEKIGKEFKR(cit)IVQR(cit)IKDFLR(cit)NLVPR(cit)TES [cit-LL37, LL37 citrullinated at all five arginine sites] |  |  |  |  |  |  |  | able to expand T-cells specific for both the cit-LL37 and the native LL37 epitopes
